Experimental data: US10766864B2, “Morphinan derivatives for the treatment of neuropathic pain” (Nektar Therapeutics, priority 2015, dated 2020)
Read-outs that look alike come from different tables or passages of the source.

Legend:
hMOR = hMOR (Homo sapiens (Human), UniProt P35372); experiment: cAMP accumulation assay (inhibition of forskolin-stimulated cAMP) in CHO-K1 cells stably expressing hMOR; type: cell-based
Description: Mu opioid agonist activity for selected compounds was determined by the inhibition of forskolin-stimulated cAMP accumulation following MOR activation in CHO-K1 cells stably expressing the hMOR. […] IC50 values were calculated from […] analysis of the concentration-response curves using Graph Pad Prizm.

NMDA receptor = experiment: Competitive radioligand binding at NMDA receptor ([3H] MK801), rat forebrain membranes; conditions: 0.2 nM [3H] MK801, reflects free base activity
Description: (§1) Receptor Binding at MOR and NMDA.
(§2) Affinities of various compounds were measured in vitro using competitive radioligand binding assays. Serial dilutions of test compounds were incubated with membranes prepared from CHO-K1 cells expressing the mu opioid receptor (MOR; for opioid receptor binding) or rat forebrain membranes (for NMDA receptor binding). 2 nM [^3H] Naloxone (MOR) or 0.2 nM [^3H] MK801 (NMDA) were used as the specific, competitive radioligands. 10 uM Naloxone (MOR), or 10 uM MK801 (NMDA) was used to determine non-specific binding. Bound radioactivity was measured using a scintillation counter & IC50 values for test compounds were determined by non-linear regression analysis using a one-site competition model (Graph Pad Prizm). Due to each test compound being solubilized in a buffered system for the assay, the results presented herein reflect the free base activity.

mu opioid receptor (MOR) = mu opioid receptor (MOR) (Homo sapiens (Human), UniProt P35372); experiment: Competitive radioligand binding at MOR ([3H] Naloxone)
Description: as §1, §2

[1] = hMOR-expressing CHO-K1 cells, 10 μM forskolin, 60 minute incubation, read-out: MOR cAMP IC50
[2] = membranes from CHO-K1 cells expressing MOR, 2 nM [3H] Naloxone, reflects free base activity, read-out: MOR IC50

For `COCCOCCN1CC[C@]23CCCC[C@H]2[C@H]1Cc1ccc(OC)cc13` [Compound 12, 3-methoxy-17-[2-(2-methoxyethoxy)ethyl]-morphinan], the IC50 (hMOR; [1]) was greater than 1000 nM, the IC50 (NMDA receptor) was greater than 10000 nM and the IC50 (mu opioid receptor (MOR); [2]) was greater than 1000 nM.

`COc1ccccc1Nc1ccc2c(c1)[C@@]13CCCC[C@H]1[C@@H](C2)N(C)CC3` [Compound 30, N-(2-methoxyphenyl)-17-methylmorphinan-3-amine] was tested, and the IC50 (hMOR) was 10 to 100 nM, the IC50 (NMDA receptor) was 1000 to 10000 nM and the IC50 (mu opioid receptor (MOR)) was 10 to 100 nM.

In the case of `COCCOCCOCCOCCOCCOCC(=O)Nc1nc2cc3c(cc2s1)C[C@@H]1[C@@H]2CCCC[C@]32CCN1C` [Compound 69], the IC50 (hMOR; [1]) is reported as 100 to 1000 nM, the IC50 (NMDA receptor) is reported as 1000 to 10000 nM and the IC50 (mu opioid receptor (MOR); [2]) is reported as 100 to 1000 nM.

Work on `COCCOc1ccc2c(c1)[C@]13CCN(C)[C@H](C2)[C@@H]1CCC(=O)C3` [Compound 7, 3-(2-methoxyethoxy)-17-methylmorphinan-6-one] yielded an IC50 (hMOR) of 100 to 1000 nM, an IC50 (NMDA receptor) greater than 10000 nM and an IC50 (mu opioid receptor (MOR)) of 100 to 1000 nM.

Compound `CN1CC[C@]23CCCC[C@H]2[C@H]1Cc1ccc(Nc2nccs2)cc13` [Compound 46, 17-methyl-N-(1,3-thiazol-2-yl)morphinan-3-amine] has an IC50 (hMOR) of 10 to 100 nM, an IC50 (NMDA receptor) of 100 to 1000 nM and an IC50 (mu opioid receptor (MOR)) of 10 to 100 nM.

`COCCOc1c(O)ccc2c1[C@@]13CCCC[C@H]1[C@@H](C2)N(C)CC3` [Compound 22, 4-(2-methoxyethoxy)-17-methylmorphinan-3-ol] showed an IC50 (hMOR) of 10 to 100 nM and an IC50 (mu opioid receptor (MOR)) of 10 to 100 nM.

In the case of `COCCOCCOCCO[C@@H]1CC[C@H]2[C@H]3Cc4ccc(O)cc4[C@@]2(CCN3C)C1` [Compound 47, (6β)-6-{2-[2-(2-methoxyethoxy)ethoxy]ethoxy}-17-methylmorphinan-3-ol], the IC50 (hMOR) is reported as 0.1 to 10 nM and the IC50 (mu opioid receptor (MOR)) is reported as 0.1 to 10 nM.

With `COCCOCCOCCN1CC[C@]23CCCC[C@H]2[C@H]1Cc1ccc(O)cc13` [Compound 16, 17-{2-{2-(2-methoxyethoxy)ethoxy]ethyl}-morphinan-3-ol] the IC50 (hMOR; [1]) was greater than 1000 nM and the IC50 (mu opioid receptor (MOR); [2]) was greater than 1000 nM.

Work on `COCCN1CC[C@]23CC(=O)CC[C@H]2[C@H]1Cc1ccc(O)cc13` [Compound 3, 3-hydroxy-17-(2-methoxyethyl)morphinan-6-one] yielded an IC50 (hMOR) of 0.1 to 10 nM and an IC50 (mu opioid receptor (MOR)) of 0.1 to 10 nM.

Work on `COCCOCCN1CC[C@]23CCCC[C@H]2[C@H]1Cc1ccc(N)cc13` [Compound 96, (4bR,8aR,9R)-11-(2-(2-methoxyethoxy)ethyl)-6,7,8,8a,9,10-hexahydro-5H-9,4b-(epiminoethano)phenanthren-3-amine] yielded an IC50 (NMDA receptor) greater than 10000 nM and an IC50 (mu opioid receptor (MOR); [2]) greater than 1000 nM.

Compound `CN1CC[C@]23CCCC[C@H]2[C@H]1Cc1cc2sc(NC(=O)C4CCN(C(=O)OC(C)(C)C)CC4)nc2cc13` [Compound 85, tert-butyl 4-{[(4aR,5R,11bR)-14-methyl-2,3,4,4a,5,6-hexahydro-1H-5,11b-(epiminoethano)phenanthro[3,2-d][1,3]thiazol-9-yl]carbamoyl}piperidine-1-carboxylate] has an IC50 (NMDA receptor) greater than 10000 nM and an IC50 (mu opioid receptor (MOR); [2]) greater than 1000 nM.

With `CN1CC[C@]23CCCC[C@H]2[C@H]1Cc1cc2sc(NC(=N)N)nc2cc13` [Compound 84, 1-((4aR,5R,11bR)-14-methyl-2,3,4,4a,5,6-hexahydro-1H-5,11b-(epiminoethano)phenanthro[3,2-d]thiazol-9-yl)guanidine] the IC50 (NMDA receptor) was 1000 to 10000 nM and the IC50 (mu opioid receptor (MOR); [2]) was 100 to 1000 nM.

Work on `COCCOCCOCCOCCOCCOc1ccc(Nc2ccc3c(c2)[C@@]24CCCC[C@H]2[C@@H](C3)N(C)CC4)cn1` [Compound 64, 17-methyl-N-[6-(2,5,8,11,14-pentaoxahexadecan-16-yloxy)pyridin-3-yl]morphinan-3-amine] yielded an IC50 (NMDA receptor) greater than 10000 nM and an IC50 (mu opioid receptor (MOR); [2]) of 10 to 100 nM.

`COCCN1CC[C@]23CCCC[C@H]2[C@H]1Cc1ccc(Nc2ccncc2)cc13` [Compound 93, 17-(2-methoxyethyl)-N-(pyridin-4-yl)morphinan-3-amine] was tested, and the IC50 (NMDA receptor) was 0.1 to 100 nM and the IC50 (mu opioid receptor (MOR)) was 10 to 100 nM.

With `CN1CC[C@]23CCCC[C@H]2[C@H]1Cc1ccc(-c2ccoc2)cc13` [Compound 51, 3-(3-furyl)-17-methylmorphinan] the IC50 (NMDA receptor) was 1000 to 10000 nM and the IC50 (mu opioid receptor (MOR)) was 10 to 100 nM.

With `COCCOCCOCCN1CC[C@]23CC(=O)CC[C@H]2[C@H]1Cc1ccc(OC)cc13` [Compound 4, 3-methoxy-17-{2-[2-(2-methoxyethoxy)ethoxy]ethyl}morphinan-6-one] the IC50 (NMDA receptor) was greater than 10000 nM and the IC50 (mu opioid receptor (MOR); [2]) was greater than 1000 nM.

In the case of `COc1ccc(NC(=O)Nc2ccc3c(c2)[C@@]24CCCC[C@H]2[C@@H](C3)N(C)CC4)cc1` [Compound 27, 1-(4-methoxyphenyl)-3-(17-methylmorphinan-3-yl)urea], the IC50 (NMDA receptor) is reported as 1000 to 10000 nM and the IC50 (mu opioid receptor (MOR)) is reported as 10 to 100 nM.

Work on `COCCOCCn1cc(-c2ccc3c(c2)C24CCCCC2C(C3)N(C)CC4)cn1` (stereo not shown) [Compound 65, 3-{1-[2-(2-methoxyethoxy)ethyl]-1H-pyrazol-4-yl}-17-methylmorphinan] yielded an IC50 (NMDA receptor) greater than 10000 nM and an IC50 (mu opioid receptor (MOR); [2]) greater than 1000 nM.

In the case of `COCCOCCOCCOCCOCCCC(=O)Nc1nc2cc3c(cc2s1)C[C@@H]1[C@@H]2CCCC[C@]32CCN1C` [Compound 80, N-[(4aR,5R,11bR)-14-methyl-2,3,4,4a,5,6-hexahydro-1H-5,11b-(epiminoethano)phenanthro[3,2-d][1,3]thiazol-9-yl]-2,5,8,11,14-pentaoxaoctadecan-18-amide], the IC50 (NMDA receptor) is reported as 1000 to 10000 nM and the IC50 (mu opioid receptor (MOR); [2]) is reported as greater than 1000 nM.

Compound `COCCOCCOc1ccc(Nc2ccc3c(c2)[C@@]24CCCC[C@H]2[C@@H](C3)N(C)CC4)cn1` [Compound 58, N-{6-[2-(2-methoxyethoxy)ethoxy]pyridin-3-yl}-17-methylmorphinan-3-amine] has an IC50 (NMDA receptor) greater than 10000 nM and an IC50 (mu opioid receptor (MOR); [2]) of 10 to 100 nM.

`COCCOCCOc1cccc(Nc2ccc3c(c2)[C@@]24CCCC[C@H]2[C@@H](C3)N(C)CC4)c1` [Compound 34, N-{3-[2-(2-methoxyethoxy)ethoxy]phenyl}-17-methylmorphinan-3-amine] gave an IC50 (NMDA receptor) greater than 10000 nM and an IC50 (mu opioid receptor (MOR); [2]) of 0.1 to 10 nM.

In the case of `COCCO[C@@H]1CC[C@H]2[C@H]3Cc4ccc(O)cc4[C@@]2(CCN3C)C1` [Compound 31, (6β)-6-(2-methoxyethoxy)-17-methylmorphinan-3-ol], the IC50 (NMDA receptor) is reported as 1000 to 10000 nM and the IC50 (mu opioid receptor (MOR)) is reported as 0.1 to 10 nM.

`COCCNc1ccc2c(c1)[C@@]13CCCC[C@H]1[C@@H](C2)N(C)CC3` [Compound 59, N-(2-methoxyethyl)-17-methylmorphinan-3-amine] gave an IC50 (NMDA receptor) of 1000 to 10000 nM and an IC50 (mu opioid receptor (MOR)) of 100 to 1000 nM.

`CN1CC[C@]23CCCC[C@H]2[C@H]1Cc1ccc(Nc2cnccn2)cc13` [Compound 55, 17-methyl-N-(pyrazin-2-yl)morphinan-3-amine] gave an IC50 (NMDA receptor) greater than 10000 nM and an IC50 (mu opioid receptor (MOR)) of 0.1 to 10 nM.

Work on `Oc1ccc2c(c1)[C@@]13CCCC[C@H]1[C@@H](C2)N(C1COC1)CC3` [Compound 87, 17-(oxetan-3-yl)morphinan-3-ol] yielded an IC50 (NMDA receptor) greater than 10000 nM and an IC50 (mu opioid receptor (MOR); [2]) greater than 1000 nM.

Compound `COc1ccc(NC(=O)c2ccc3c(c2)[C@@]24CCCC[C@H]2[C@@H](C3)N(C)CC4)cc1` [Compound 38, N-(4-methoxyphenyl)-17-methylmorphinan-3-carboxamide] has an IC50 (NMDA receptor) greater than 10000 nM and an IC50 (mu opioid receptor (MOR)) of 100 to 1000 nM.

`CCNC(=O)N1CC[C@]23CCCC[C@H]2[C@H]1Cc1ccc(OC)cc13` [Compound 17, N-ethyl-3-methoxymorphinan-17-carboxamide] showed an IC50 (NMDA receptor) greater than 10000 nM and an IC50 (mu opioid receptor (MOR); [2]) greater than 1000 nM.

`COCCOCCOCCOCCOCCOc1ccc2c(c1)[C@]13CCN(C)[C@H](C2)[C@@H]1CCC(=O)C3` [Compound 8, 17-methyl-3-(2,5,8,11,14-pentaoxahexadecan-16-yloxy)morphinan-6-one] showed an IC50 (NMDA receptor) greater than 10000 nM and an IC50 (mu opioid receptor (MOR); [2]) greater than 1000 nM.
